Each compound was assayed against T1, Acetylcholinesterase (Homo sapiens, UniProt P22303).
T1 sequence (P22303 whole entry): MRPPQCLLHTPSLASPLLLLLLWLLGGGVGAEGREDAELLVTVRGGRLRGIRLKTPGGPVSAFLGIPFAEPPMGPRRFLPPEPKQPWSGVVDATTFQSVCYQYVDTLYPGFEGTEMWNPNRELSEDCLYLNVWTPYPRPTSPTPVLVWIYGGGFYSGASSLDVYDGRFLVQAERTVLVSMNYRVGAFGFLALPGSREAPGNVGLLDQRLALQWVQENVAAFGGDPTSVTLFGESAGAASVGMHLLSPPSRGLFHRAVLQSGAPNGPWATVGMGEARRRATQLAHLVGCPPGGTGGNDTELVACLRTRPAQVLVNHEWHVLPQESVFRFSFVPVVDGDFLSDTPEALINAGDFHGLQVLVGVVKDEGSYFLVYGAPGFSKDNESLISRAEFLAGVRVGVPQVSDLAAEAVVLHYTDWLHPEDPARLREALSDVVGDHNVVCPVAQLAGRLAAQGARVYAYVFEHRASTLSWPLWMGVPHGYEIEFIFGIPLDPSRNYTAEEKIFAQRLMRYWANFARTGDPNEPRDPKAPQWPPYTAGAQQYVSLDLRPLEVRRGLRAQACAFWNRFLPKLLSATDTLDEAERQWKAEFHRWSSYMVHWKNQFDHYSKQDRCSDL
Description: In vitro inhibitory activity against human erythrocyte acetylcholinesterase
For `Nc1c2c(nc3cccc(F)c13)C1CC(C2)C1`, the IC50 was 0.0288 µM.
With `Nc1c2c(nc3ccc(O)cc13)CCCC2` the IC50 was 0.162 µM.

Target: T1, Acetylcholinesterase
Remark: another data set of the same source
Description: Inhibitory activity against human erythrocyte acetylcholinesterase
In the case of `C=C1c2c(Cl)cccc2N=C2CCCCCN12`, the IC50 is reported as 1.7 µM.
With `C=C1c2ccc(Cl)cc2N=C2CCCCCN12` the IC50 was 0.158 µM.
In the case of `C=C1c2cc(Cl)ccc2N=C2CCCCCN12`, the IC50 is reported as 0.501 µM.
`C=C1c2ccccc2N=C2CCCCCN12` gave an IC50 of 3.72 µM.
With `C=C1c2cccc(Cl)c2N=C2CCCCCN12` the IC50 was 1.51 µM.
`Nc1c2c(nc3cnccc13)OCCC2` was tested, and the IC50 was 41.7 µM.
Work on `Nc1c2c(nc3cccc(F)c13)CCCC2` yielded an IC50 of 0.0794 µM.
Work on `Nc1c2c(nc3ccc(Cl)cc13)OCCC2` yielded an IC50 of 10 µM.
Compound `CCC1=CC2Cc3nc4cc(Cl)ccc4c(N)c3C(C1)C2` (stereo not given) has an IC50 of 0.000324 µM.
In the case of `O=c1c2ccc(Cl)cc2nc2n1CCCCC2`, the IC50 is reported as greater than 100 µM.
Compound `S=c1c2ccc(Cl)cc2nc2n1CCCCC2` has an IC50 greater than 100 µM.

What follows are compounds tested against T2, Acetylcholinesterase (Bos taurus, UniProt P23795).
T2 sequence (P23795 whole entry): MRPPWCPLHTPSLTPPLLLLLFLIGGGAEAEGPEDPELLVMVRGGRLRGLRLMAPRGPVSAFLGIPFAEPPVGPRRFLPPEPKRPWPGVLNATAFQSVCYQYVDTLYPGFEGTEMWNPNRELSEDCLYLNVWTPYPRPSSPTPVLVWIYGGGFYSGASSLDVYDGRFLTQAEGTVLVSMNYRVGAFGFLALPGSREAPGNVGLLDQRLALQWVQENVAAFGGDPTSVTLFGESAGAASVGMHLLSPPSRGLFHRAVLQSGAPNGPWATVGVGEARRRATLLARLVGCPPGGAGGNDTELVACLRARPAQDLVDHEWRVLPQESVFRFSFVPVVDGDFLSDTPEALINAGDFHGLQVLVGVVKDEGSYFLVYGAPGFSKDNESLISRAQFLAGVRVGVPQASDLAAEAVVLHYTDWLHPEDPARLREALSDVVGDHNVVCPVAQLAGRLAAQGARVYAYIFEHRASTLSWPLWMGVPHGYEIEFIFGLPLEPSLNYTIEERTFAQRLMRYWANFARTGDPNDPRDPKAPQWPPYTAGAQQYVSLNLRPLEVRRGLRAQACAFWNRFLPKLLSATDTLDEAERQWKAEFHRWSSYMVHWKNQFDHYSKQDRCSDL
Description: In vitro inhibitory activity against bovine acetylcholinesterase
Compound `CCC1=CC2Cc3nc4cc(Cl)ccc4c(N)c3C(C1)C2` (stereo not given) has an IC50 of 0.00129 µM.

The compounds below were run against T1, Acetylcholinesterase (assay: Inhibitory activity against of human erythrocyte acetylcholinesterase).
In the case of `NC1=C2CCCCC2=NC2CCCCC12` (stereo not given), the IC50 is reported as 0.363 µM.

— ChEMBL document CHEMBL1138734, “Modulation of binding strength in several classes of active site inhibitors of acetylcholinesterase studied by comparative binding energy analysis” (J Med Chem, 2004)
